Results on 15 compounds are retold here after patent US9650340B2, “5-fluoro-N-(pyridin-2-yl)pyridin-2-amine derivatives containing a sulfoximine group” (BAYER PHARMA AKTIENGESELLSCHAFT, priority 2012, dated 2017).

For one assay, the target named is T1, CDK9/CycT1 (Homo sapiens, UniProt P50750).
T1 construct: Recombinant full-length His-tagged human CDK9 and CycT1; His; purchased Invitrogen PV4131; host or cells: insect cells
The assay can be described thus: CDK9/CycT1 kinase assay (TR-FRET, 10 μM ATP). Format: biochemical. Conditions: Method 1a. The source says:
1a. CDK9/CyeT1 Kinase Assay:
CDK9/CycT1-inhibitory activity of compounds of the present invention was quantified employing the CDK9/CycT1 TR-FRET assay as described in the following paragraphs:
Recombinant full-length His-tagged human CDK9 and CycT1, expressed in insect cells and purified by Ni-NTA affinity chromatography, were purchased from Invitrogen (Cat. No PV4131). As substrate for the kinase reaction biotinylated peptide biotin-Ttds-[…] (C-terminus in amid form) was used which can be purchased e.g. form the company JERINI Peptide Technologies (Berlin, Germany). For the assay 50 nl of a 100 fold concentrated solution of the test compound in DMSO was pipetted into a black low volume 384 well microtiter plate (Greiner Bio-One, Frickenhausen, Germany), 2 μl of a solution of CDK9/CycT1 in aqueous assay buffer [50 mM Tris/HCl pH 8.0, 10 mM MgCl2, 1.0 mM dithiothreitol, 0.1 mM sodium ortho-vanadate, 0.01% (v/v) Nonidet-P40 (Sigma)] were added and the mixture was incubated for 15 min at 22° C. to allow pre-binding of the test compounds to the enzyme before the start of the kinase reaction.
The resulting mixture was incubated 1 h at 22° C. to allow the formation of complex between the phosphorylated biotinylated peptide and the detection reagents. Subsequently the amount of phosphorylated substrate was evaluated by measurement of the resonance energy transfer from the Eu-chelate to the streptavidine-XL.
Background: In TR-FRET formats the signal depends on donor and acceptor labels being close together.

The next assay concerns the target T2, CDK2/CycE (Homo sapiens, UniProt P24941).
T2 construct: GST; purchased ProQinase GmbH (Freiburg, Germany); host or cells: insect cells (Sf9)
The assay can be described thus: CDK2/CycE high ATP kinase assay (TR-FRET, 2 mM ATP). Format: biochemical. The conditions noted are these: Method 2b. As for the experimental part: 2b. CDK2/CycE High ATP Kinase Assay:
CDK2/CycE-inhibitory activity of compounds of the present invention at 2 mM adenosine-tri-phosphate (ATP) was quantified employing the CDK2/CycE TR-FRET (TR-FRET=Time Resolved Fluorescence Energy Transfer) assay as described in the following paragraphs.
Recombinant fusion proteins of GST and human CDK2 and of GST and human CycE, expressed in insect cells (Sf9) and purified by Glutathion-Sepharose affinity chromatography, were purchase from ProQinase GmbH (Freiburg, Germany). As substrate for the kinase reaction biotinylated peptide biotin-Ttds-[…] (C-terminus in amid form) was used which can be purchased e.g. form the company JERINI peptide technologies (Berlin, Germany).
For the assay 50 nl of a 100 fold concentrated solution of the test compound in DMSO was pipetted into a black low volume 384 well microtiter plate (Greiner Bio-One, Frickenhausen, Germany), 2 μl of a solution of CDK2/CycE in aqueous assay buffer [50 mM Tris/HCl pH 8.0, 10 mM MgCl2, 1.0 mM dithiothreitol, 0.1 mM sodium ortho-vanadate, 0.01% (v/v) Nonidet-P40 (Sigma)] were added and the mixture was incubated for 15 min at 22° C. to allow pre-binding of the test compounds to the enzyme before the start of the kinase reaction. Then the kinase reaction was started by the addition of 3 μl of a solution ATP (3.33 mM=>final conc. in the 5 μl assay volume is 2 mM) and substrate (1.25 μM=>final conc. in the 5 μl assay volume is 0.75 μM) in assay buffer and the resulting mixture was incubated for a reaction time of 25 min at 22° C. The concentration of CDK2/CycE was adjusted depending of the activity of the enzyme lot and was chosen appropriate to have the assay in the linear range, typical concentrations were in the range of 15 ng/ml. The reaction was stopped by the addition of 5 μl of a solution of TR-FRET detection reagents (0.2 μM streptavidine-XL665 [Cisbio Bioassays, Codolet, France] and 1 nM anti-RB(pSer807/pSer811)-antibody from BD Pharmingen [#558389] and 1.2 nM LANCE EU-W1024 labeled anti-mouse IgG antibody [Perkin-Elmer, product no. AD0077, as an alternative a Terbium-cryptate-labeled anti-mouse IgG antibody from Cisbio Bioassays can be used]) in an aqueous EDTA-solution (100 mM EDTA, 0.2% (w/v) bovine serum albumin in 100 mM HEPES/NaOH pH 7.0).
The resulting mixture was incubated 1 h at 22° C. to allow the formation of complex between the phosphorylated biotinylated peptide and the detection reagents. Subsequently the amount of phosphorylated substrate was evaluated by measurement of the resonance energy transfer from the Eu-chelate to the streptavidine-XL. Therefore, the fluorescence emissions at 620 nm and 665 nm after excitation at 350 nm were measured in a TR-FRET reader, e.g. a Rubystar (BMG Labtechnologies, Offenburg, Germany) or a Viewlux (Perkin-Elmer). The ratio of the emissions at 665 nm and at 622 nm was taken as the measure for the amount of phosphorylated substrate.

T1 sequence (P50750 whole entry): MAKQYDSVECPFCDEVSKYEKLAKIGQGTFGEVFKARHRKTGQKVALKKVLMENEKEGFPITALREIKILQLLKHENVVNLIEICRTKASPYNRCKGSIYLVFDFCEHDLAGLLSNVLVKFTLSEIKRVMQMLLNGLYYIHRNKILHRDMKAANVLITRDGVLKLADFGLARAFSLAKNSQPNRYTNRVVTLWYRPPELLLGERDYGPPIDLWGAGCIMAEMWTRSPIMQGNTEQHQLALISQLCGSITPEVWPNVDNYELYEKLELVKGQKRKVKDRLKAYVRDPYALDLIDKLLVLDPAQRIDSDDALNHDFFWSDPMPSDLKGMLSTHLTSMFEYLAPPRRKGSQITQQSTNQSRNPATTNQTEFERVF
T1 sequence (O60563 whole entry partner): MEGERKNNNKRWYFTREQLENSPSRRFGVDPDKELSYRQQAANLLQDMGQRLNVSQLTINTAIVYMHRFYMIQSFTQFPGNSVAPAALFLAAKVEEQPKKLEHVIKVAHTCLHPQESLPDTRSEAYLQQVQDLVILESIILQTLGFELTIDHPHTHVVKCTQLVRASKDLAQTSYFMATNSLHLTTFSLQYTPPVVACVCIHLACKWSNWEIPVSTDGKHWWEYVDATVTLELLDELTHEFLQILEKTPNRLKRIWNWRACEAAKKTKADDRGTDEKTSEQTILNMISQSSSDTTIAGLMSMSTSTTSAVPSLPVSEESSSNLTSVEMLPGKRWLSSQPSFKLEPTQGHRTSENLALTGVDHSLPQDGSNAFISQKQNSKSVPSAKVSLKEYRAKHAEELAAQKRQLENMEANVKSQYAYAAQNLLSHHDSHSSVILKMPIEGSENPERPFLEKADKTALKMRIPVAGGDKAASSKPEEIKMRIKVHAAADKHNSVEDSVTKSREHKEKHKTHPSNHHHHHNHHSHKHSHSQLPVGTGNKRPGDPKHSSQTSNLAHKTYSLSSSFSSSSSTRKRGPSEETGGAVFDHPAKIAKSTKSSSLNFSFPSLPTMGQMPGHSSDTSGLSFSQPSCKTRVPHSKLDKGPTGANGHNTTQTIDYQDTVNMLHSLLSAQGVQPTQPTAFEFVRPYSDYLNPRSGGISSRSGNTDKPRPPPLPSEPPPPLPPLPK

Turning to `CCOC(=O)N=S(C)(=O)Cc1cc(Nc2cc(-c3ccc(F)cc3OC)c(F)cn2)nc(OC)c1` (racemic) [Example 15, (rac)-ethyl{[(2-{[5-fluoro-4-(4-fluoro-2-methoxyphenyl)pyridin-2-yl]amino}-6-methoxypyridin-4-yl)methyl](methyl)oxido-λ^6-sulfanylidene}carbamate], the results for the IC50 at CDK9/CycT1 and at CDK2/CycE were 2 nM and 123 nM, respectively.
The matching figures for `COc1cc(F)ccc1-c1cc(Nc2cc(CS(C)(=N)=O)cc(F)n2)ncc1F` (racemic) [Example 17, (rac)-5-Fluoro-4-(4-fluoro-2-methoxyphenyl)-N-{6-fluoro-4-[(S-methylsulfonimidoyl)methyl]pyridin-2-yl}pyridin-2-amine]: 0.9 nM and 886 nM.
Turning to `COc1cc(F)ccc1-c1cc(Nc2cc(CS(C)(=N)=O)cc(C(F)(F)F)n2)ncc1F` (racemic) [Example 21, (rac)-5-Fluoro-4-(4-fluoro-2-methoxyphenyl)-N-{4-[(S-methylsulfonimidoyl)methyl]-6-(trifluoromethyl)pyridin-2-yl}pyridin-2-amine], the figures for the IC50 against CDK9/CycT1 and against CDK2/CycE were 2 nM and 133 nM, respectively.
In the case of `CCOc1cc(F)ccc1-c1cc(Nc2cc(CS(C)(=N)=O)cc(F)n2)ncc1F` (racemic) [Example 26, (rac)-4-(2-Ethoxy-4-fluorophenyl)-5-fluoro-N-{6-fluoro-4-[(S-methylsulfonimidoyl)methyl]pyridin-2-yl}pyridin-2-amine], the values for the IC50 at CDK9/CycT1 and at CDK2/CycE were 3 nM and 1200 nM, respectively.
On to `CCOc1cc(F)ccc1-c1cc(Nc2cc(CS(C)(=O)=NC(=O)C(F)(F)F)cc(F)n2)ncc1F` (racemic) [Example 27, (rac)-N-{[(2-{[4-(2-Ethoxy-4-fluoro-phenyl)-5-fluoropyridin-2-yl]amino}-6-fluoropyridin-4-yl)methyl]-(methyl)oxido-λ^6-sulfanylidene}-2,2,2-trifluoroacetamide], for which the IC50 at CDK9/CycT1 was 9 nM; against CDK2/CycE, at least 20000 nM.
The matching figures for `CCS(=N)(=O)Cc1ccnc(Nc2cc(-c3ccc(F)cc3OC)c(F)cn2)c1` (racemic) [Example 30, (rac)-N-{4-[(S-Ethylsulfonimidoyl)-methyl]pyridin-2-yl}-5-fluoro-4-(4-fluoro-2-methoxyphenyl)pyridin-2-amine]: 3 nM and 300 nM.
For `COc1cc(F)ccc1-c1cc(Nc2cc(CS(C)(=N)=O)cc(C(F)F)n2)ncc1F` (racemic) [Example 31, (rac)-N-{6-(Difluoromethyl)-4-[(S-methylsulfonimidoyl)methyl]pyridin-2-yl}-5-fluoro-4-(4-fluoro-2-methoxyphenyl)pyridin-2-amine], the IC50 at CDK9/CycT1 is 3 nM; at CDK2/CycE it was 229 nM.
The matching figures for `COc1cc(F)ccc1-c1cc(Nc2cc(CS(C)(=O)=NC#N)ccn2)ncc1F` (single isomer, unassigned) [Example 10, {[(2-{[5-Fluoro-4-(4-fluoro-2-methoxyphenyl)pyridin-2-yl]amino}pyridin-4-yl)methyl](methyl)oxido-λ^6-sulfanylidene}cyanamide]: 4 nM and 1420 nM.
The matching figures for `COc1cc(F)ccc1-c1cc(Nc2cc(CS(C)(=N)=O)cc(F)n2)ncc1F` (single isomer, unassigned; (+)) [Example 19, (+)-5-Fluoro-4-(4-fluoro-2-methoxyphenyl)-N-{6-fluoro-4-[(S-methylsulfonimidoyl)methyl]pyridin-2-yl}pyridin-2-amine]: 5 nM and 1370 nM.
As for `COc1cc(F)ccc1-c1cc(Nc2cc(CS(C)(=N)=O)cc(C(F)(F)F)n2)ncc1F` (single isomer, unassigned; (+)) [Example 22, (+)-5-Fluoro-4-(4-fluoro-2-methoxyphenyl)-N-{4-[(S-methylsulfonimidoyl)methyl]-6-(trifluoromethyl)pyridin-2-yl}pyridin-2-amine], the IC50 stood at 2 nM at CDK9/CycT1 and 233 nM against CDK2/CycE.
In the same order, the values of `COc1cc(F)ccc1-c1cc(Nc2cc(CS(C)(=O)=NC(=O)C(F)(F)F)cc(C(F)(F)F)n2)ncc1F` (single isomer, unassigned; (+)) [Example 24, (+)-2,2,2-Trifluoro-N-[{[2-{[5-fluoro-4-(4-fluoro-2-methoxyphenyl)pyridin-2-yl]amino}-6-(trifluoromethyl)-pyridin-4-yl]methyl}(methyl)oxido-λ^6-sulfanylidene]acetamide] are 18 nM and 4000 nM.
As to `CCOc1cc(F)ccc1-c1cc(Nc2cc(CS(C)(=N)=O)cc(F)n2)ncc1F` (single isomer, unassigned; (+)) [Example 28, (+)-4-(2-Ethoxy-4-fluorophenyl)-5-fluoro-N-{6-fluoro-4-[(S-methylsulfonimidoyl)methyl]pyridin-2-yl}pyridin-2-amine], the IC50 turned out to be 5 nM on CDK9/CycT1 and 1170 nM against CDK2/CycE.
As to `COc1cc(F)ccc1-c1cc(Nc2cc(CS(C)(=N)=O)cc(F)n2)ncc1F` (single isomer, unassigned; (-)) [Example 20, (−)-5-Fluoro-4-(4-fluoro-2-methoxyphenyl)-N-{6-fluoro-4-[(S-methylsulfonimidoyl)methyl]pyridin-2-yl}pyridin-2-amine], the IC50 came out at 2 nM against CDK9/CycT1 and 815 nM against CDK2/CycE.
The matching figures for `COc1cc(F)ccc1-c1cc(Nc2cc(CS(C)(=O)=NC(=O)C(F)(F)F)cc(C(F)(F)F)n2)ncc1F` (single isomer, unassigned; (-)) [Example 25, (−)-2,2,2-Trifluoro-N-[{[2-{[5-fluoro-4-(4-fluoro-2-methoxyphenyl)pyridin-2-yl]amino}-6-(trifluoromethyl)-pyridin-4-yl]methyl}(methyl)oxido-λ^6-sulfanylidene]acetamide]: 15 nM and 2640 nM.
On to `CCOc1cc(F)ccc1-c1cc(Nc2cc(CS(C)(=N)=O)cc(F)n2)ncc1F` (single isomer, unassigned; (-)) [Example 29, (−)-4-(2-Ethoxy-4-fluorophenyl)-5-fluoro-N-{6-fluoro-4-[(S-methylsulfonimidoyl)methyl]pyridin-2-yl}pyridin-2-amine], for which the IC50 worked out at 3 nM on CDK9/CycT1 and 1710 nM on CDK2/CycE.

What is called IC50 is the concentration that inhibits the measured activity by half. Higher therefore signals a need for much substance.
